Here are results for five molecules from patent publication EP0390558B1, “Aromatase inhibiting 4(5)-imidazoles” (ORION-YHTYMÄ OY, priority 1989, dated 1990).

The target in this assay is T1, Human aromatase enzyme (Homo sapiens, UniProt P11511).
T1 construct: The enzyme preparation was used without further purification; from tissue; host or cells: human placenta, microsomal fraction (100000 x g precipitate)
T1 sequence (P11511 1-503): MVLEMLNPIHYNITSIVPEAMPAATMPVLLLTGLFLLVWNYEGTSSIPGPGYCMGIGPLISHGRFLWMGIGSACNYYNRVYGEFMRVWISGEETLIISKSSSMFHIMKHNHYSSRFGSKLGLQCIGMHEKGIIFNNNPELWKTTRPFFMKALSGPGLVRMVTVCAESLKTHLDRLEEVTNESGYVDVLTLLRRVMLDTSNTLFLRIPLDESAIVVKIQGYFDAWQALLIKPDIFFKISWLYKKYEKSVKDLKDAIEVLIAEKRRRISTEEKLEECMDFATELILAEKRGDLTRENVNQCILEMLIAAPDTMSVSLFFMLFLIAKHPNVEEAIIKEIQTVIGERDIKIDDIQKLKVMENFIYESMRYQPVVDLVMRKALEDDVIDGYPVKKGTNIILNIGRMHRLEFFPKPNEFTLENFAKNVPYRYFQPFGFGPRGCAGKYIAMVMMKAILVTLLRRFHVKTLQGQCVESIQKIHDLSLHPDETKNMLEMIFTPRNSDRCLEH
As to the kind of experiment: In vitro aromatase inhibition assay (3H2O release from 1,2[3H]-androstene-3,17-dione). The class given is biochemical.
Take `COc1ccc(CCCCC(c2ccc(F)cc2)c2c[nH]cn2)cc1` (centres unmarked) [Compound 12b, 4-[1-(4-fluorophenyl)-5-(4-methoxyphenyl)pentyl]-1H-imidazole]: the IC50 (commonly the concentration needed to halve the response being measured) was determined as 3 µM.

In the case of `COc1cccc(CCCCC(c2ccc(F)cc2)c2c[nH]cn2)c1` (centres unmarked) [Compound 11b, 4-[1-(4-fluorophenyl)-5-(3-methoxyphenyl)pentyl]-1H-imidazole], 2.6 µM corresponded to half-maximal inhibition (IC50).

As to `c1ccc(CCC(c2ccccc2)c2cncn2Cc2ccccc2)cc1` (centres unmarked) [Compound 8b, 1-benzyl-5-(1,3-diphenylpropyl)-1H-imidazole], half-maximal inhibition (IC50) was put at 30 µM.

`Cc1cc(C)cc(CCCCC(c2ccc(F)cc2)c2c[nH]cn2)c1` (centres unmarked) [Compound 5b, 4-[5-(3,5-dimethylphenyl)-1-(4-fluorophenyl)-pentyl]-1H-imidazole] came in with an IC50 of 7.5 µM.

For the molecule `Cc1cccc(C)c1CCCCC(c1ccc(F)cc1)c1c[nH]cn1` (centres unmarked) [Compound 13b, 4-[1-(4-fluorophenyl)-5-(2,6-dimethylphenyl)-pentyl]-1H-imidazole], the IC50 is 7.7 µM.
